Laboratory results reported in patent US8309550B2, “Kinase inhibitors and their use as pharmaceutical agents” (Shanghai Genomics, Inc., priority 2011, dated 2012).
Where two headings read alike, the source gives them in different places.

Legend:
[1] = target: T1, CDK1/cyclinB (Homo sapiens, UniProt P06493); experiment: Z'-LYTE kinase assay CDK1/cyclinB; assay type: biochemical
T1 construct: purchased Invitrogen PV3292
Experimental: (§1) Kinase assays. The compounds from the example above were tested for their ability to inhibit kinases. Recombinant human CDK2/cyclinA (PV3267), CDK1/cyclinB (PV3292), CDK5/p35 (PV3000) and Aurora A (PV3612) were purchased from Invitrogen (Carlsbad, Calif., USA). Kinase dosage and Z′-LYTE™ substrate for each kinase assay is as follows: CDK2/cyclinA-8 ng/reaction, Ser/Thr 12 Peptide; CDK1/cyclinB-0.8 ng/reaction, Ser/Thr 12 Peptide, CDK5/p35-0.8 ng/reaction, Ser/Thr 12 Peptide, and Aurora A-16 ng/reaction, Ser/Thr 1 Peptide. All enzymatic assays were performed using Z′-LYTE™ Kinase Assay Kits and were carried out following protocols provided by Invitrogen. To prepare stock solutions, compounds were dissolved at 10 mM in 100% DMSO and stored at 4° C. in amber glass vials. Enzyme reactions were initiated by adding recombinant enzyme and Z′-LYTE™ Ser/Thr peptide substrate and ATP mixture to 384-well plates containing diluted test compounds. Kinase and corresponding peptide substrate were incubated for 1 hr at room temperature in the presence of varying amounts of test compound with reaction buffer (20 μM ATP, […] [pH 7.5], 5 mM MgCl2, 0.5 mM EGTA, 0.005% Brij-35). Development buffer was added and incubated for another one hour at room temperature. Reactions were terminated by addition of stop buffer, and fluorescence emission intensity ratio 445 nm/520 nm (excited at 400 nm) was quantified by VICTOR-3 Multilabel Reader (Perkin-Elmer, Waltham, Mass., USA). Phosphorylation was calculated from the emission ratio. IC50 was determined using Sigmoid curve-fitting software Origin 6.0 (MicroCal, LLC, Northampton, Mass., USA).

[2] = target: T2, CDK2/cyclinA (Homo sapiens, UniProt P24941); experiment: Z'-LYTE kinase assay CDK2/cyclinA; assay type: biochemical
T2 construct: purchased Invitrogen PV3267
Experimental: as §1

[3] = target: T3, CDK5/p35 (Homo sapiens, UniProt Q00535); experiment: Z'-LYTE kinase assay CDK5/p35; assay type: biochemical
T3 construct: purchased Invitrogen PV3000
T3 sequence (Q00535 whole entry): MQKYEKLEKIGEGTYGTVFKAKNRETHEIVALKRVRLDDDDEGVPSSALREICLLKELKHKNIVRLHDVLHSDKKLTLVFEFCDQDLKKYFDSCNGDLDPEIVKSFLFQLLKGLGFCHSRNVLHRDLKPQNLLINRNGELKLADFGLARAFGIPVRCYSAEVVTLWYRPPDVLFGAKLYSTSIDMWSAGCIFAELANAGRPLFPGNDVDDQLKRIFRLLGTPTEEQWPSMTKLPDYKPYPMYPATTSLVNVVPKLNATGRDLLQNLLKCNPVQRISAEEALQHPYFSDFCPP
T3 sequence (Q15078 whole entry partner): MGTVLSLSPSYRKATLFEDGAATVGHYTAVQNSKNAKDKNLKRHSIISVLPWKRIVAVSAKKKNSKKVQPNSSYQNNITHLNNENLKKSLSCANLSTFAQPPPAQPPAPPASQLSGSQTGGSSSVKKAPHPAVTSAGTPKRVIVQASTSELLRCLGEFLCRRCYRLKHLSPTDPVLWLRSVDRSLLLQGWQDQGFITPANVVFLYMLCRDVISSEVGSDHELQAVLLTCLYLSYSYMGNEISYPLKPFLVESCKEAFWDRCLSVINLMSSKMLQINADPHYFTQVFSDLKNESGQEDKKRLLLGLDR
Experimental: as §1

[4] = target: CDK9T1 (Homo sapiens, UniProt P50750); experiment: Kinase assay CDK9T1 (Table I); assay type: biochemical; conditions: read-out: Kinase inhibition, IC50 CDK9T1
CDK9T1, sequence (P50750 whole entry): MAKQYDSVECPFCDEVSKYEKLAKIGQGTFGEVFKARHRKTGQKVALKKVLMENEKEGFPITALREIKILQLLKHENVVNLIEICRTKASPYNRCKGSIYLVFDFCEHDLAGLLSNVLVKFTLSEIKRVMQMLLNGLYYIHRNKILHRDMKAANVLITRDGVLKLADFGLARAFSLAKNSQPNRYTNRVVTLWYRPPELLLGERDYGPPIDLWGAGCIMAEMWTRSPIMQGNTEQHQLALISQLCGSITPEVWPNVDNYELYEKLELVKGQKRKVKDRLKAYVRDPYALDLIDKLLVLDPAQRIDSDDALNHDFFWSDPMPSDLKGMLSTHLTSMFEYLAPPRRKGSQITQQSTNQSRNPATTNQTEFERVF
CDK9T1, sequence (O60563 whole entry partner): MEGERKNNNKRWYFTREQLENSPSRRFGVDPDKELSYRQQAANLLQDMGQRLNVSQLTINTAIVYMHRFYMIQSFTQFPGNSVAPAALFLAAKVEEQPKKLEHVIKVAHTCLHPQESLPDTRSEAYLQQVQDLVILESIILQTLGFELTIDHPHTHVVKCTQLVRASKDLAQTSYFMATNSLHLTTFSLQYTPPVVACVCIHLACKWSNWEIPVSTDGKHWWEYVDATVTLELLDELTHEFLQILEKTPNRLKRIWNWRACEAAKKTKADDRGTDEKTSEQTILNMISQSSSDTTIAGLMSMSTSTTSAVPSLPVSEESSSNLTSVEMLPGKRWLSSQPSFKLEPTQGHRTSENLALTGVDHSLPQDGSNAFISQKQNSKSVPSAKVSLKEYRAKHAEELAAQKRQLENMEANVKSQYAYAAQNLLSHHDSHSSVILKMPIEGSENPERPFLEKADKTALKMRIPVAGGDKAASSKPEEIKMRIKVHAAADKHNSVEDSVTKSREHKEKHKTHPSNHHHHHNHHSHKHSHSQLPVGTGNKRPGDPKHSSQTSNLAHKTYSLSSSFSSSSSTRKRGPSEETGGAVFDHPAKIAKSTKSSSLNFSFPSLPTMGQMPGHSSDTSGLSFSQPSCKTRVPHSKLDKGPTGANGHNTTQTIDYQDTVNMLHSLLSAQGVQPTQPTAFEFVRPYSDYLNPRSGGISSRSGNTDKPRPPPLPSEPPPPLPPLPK
Experimental: [The source words this procedure for another target and reports this target under the same test.] as §1

[5] = target: T4, Aurora A (Homo sapiens, UniProt O14965); experiment: Z'-LYTE kinase assay Aurora A; assay type: biochemical
T4 construct: purchased Invitrogen PV3612
T4 sequence (O14965 1-403): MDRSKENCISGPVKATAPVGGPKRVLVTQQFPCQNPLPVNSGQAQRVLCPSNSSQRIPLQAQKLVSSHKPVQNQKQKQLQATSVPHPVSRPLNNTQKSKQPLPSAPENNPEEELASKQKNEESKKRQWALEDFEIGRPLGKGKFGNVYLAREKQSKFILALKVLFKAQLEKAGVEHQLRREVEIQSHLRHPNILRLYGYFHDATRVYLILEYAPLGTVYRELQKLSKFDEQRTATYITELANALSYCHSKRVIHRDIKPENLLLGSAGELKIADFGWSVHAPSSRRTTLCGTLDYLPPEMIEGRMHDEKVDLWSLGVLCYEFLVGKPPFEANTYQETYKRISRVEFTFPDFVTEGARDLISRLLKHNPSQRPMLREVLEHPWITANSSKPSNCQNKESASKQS
Experimental: as §1

[6] = tested on: A549 cells; experiment: 72 h MTT cytotoxicity assay A549; assay type: cell-based; conditions: Homo sapiens; A549, 72 hrs
Description: (§2) MIT cytotoxicity assay. The compounds of the invention were subjected to a standard cellular proliferation assay using human cell lines. HeLa cells (Human cervix adenocarcinoma cell line, ATCC NO, CCL-2); A549 cells (Human lung carcinoma cells line, ATCC NO, CCL-185); U2OS cells (Human osteosarcoma cell line, ATCC NO, HTB-96); Eca-109 cells (Human esophageal carcinoma cell line); HepG2 (Human hepatocellular liver carcinoma cell line, ATCC NO, HB-8065); K562 cells (Human chronic myelogenous leukemia cell line, ATCC NO, CCL-243); SK-MEL-28 (Human malignant melanoma cell line, ATCC NO, HTB-72); Molt-4 (Human acute lymphoblastic leukemia cell line, ATCC NO, CRL-1582); H460 (Human large cell lung cancer cell line, ATCC NO, HTB-177); MDA-MB-231 (Human breast adenocarcinoma cell line, ATCC NO, HTB-26); MCF7 (Human breast adenocarcinoma cell line, ATCC NO, HTB-22); ACHN (Human renal cell adenocarcinoma cell line, ATCC NO, CRL-1611); PC-3M (Human prostate adenocarcinoma cell line, ATCC NO CRL-1435); HL60 (Human acute promyelocytic leukemia cell line, ATCC NO, CCL-240); THP-1 (Human acute monocytic leukemia, ATCC NO, TIB-202); Jurkat (Human acute T cell leukemia cell line, ATCC NO, CRL-2063); HCT-116 (Human colorectal carcinoma cell line, ATCC NO, CCL-247); HT-29 (Human colorectal adenocarcinoma cell line, ATCC NO, HTB-38™); WI-38 (Human normal lung cell line, ATCC NO, CCL-75); MRC-5 (Human normal lung cell line, ATCC NO, CCL-171).
(§3) HepG2, MDA-MB-231, WI-38 and MRC-5 cells were obtained from Shanghai Institute of Cell Biology, Chinese Academy of Sciences (Shanghai 200031, China). A549, HeLa, K562, MCF7, ACHN, H460, U2OS, Eca-109, MCF7, HL60, THP-1, Jurkat, HCT-116, HT-29, PC-3M, SK-MEL-28, Molt-4, H460 and […] cells were purchased from ATCC (American Type Culture Collection, USA).
(§4) Standard 72 h MTT (thiazolye blue; 3-[4,5-dimethylthiazol-2-yl]-2,5-diphenyltetrazolium bromide) assays were performed. Briefly, the cell lines used in this study were recovered and cultured according to the conditions recommended. 4000 cells per well were seeded into 96-well plates according to doubling time and incubated overnight at 37° C. Compounds were prepared in DMSO and a ½ dilution series in 100 μl cell culture media, added to cells (in duplicates) with the final DMSO concentration of 0.025%, and incubated for 72 hrs at 37° C. MTT solution (5 mg/ml) was added at 10 μl per well and incubated in the dark at 37° C. for 4 hr. Culture medium and MTT solution was removed. MTT dye was solubilised with 100 μl per well of DMSO with agitation. Absorbance was read at 562 nm and data analyzed using Sigmoid curve-fitting software Origin 6.0 (MicroCal, LLC, USA) to determine IC50 value.

[7] = tested on: U2OS cells; experiment: 72 h MTT cytotoxicity assay U2OS; assay type: cell-based; conditions: Homo sapiens
Description: as §2, §3, §4

[8] = tested on: Eca-109 cells; experiment: 72 h MTT cytotoxicity assay Eca-109; assay type: cell-based; conditions: Homo sapiens; Eca-109, 72 hrs
Description: as §2, §3, §4

[9] = tested on: HepG2; experiment: 72 h MTT cytotoxicity assay HepG2; assay type: cell-based; conditions: Homo sapiens; HepG2, 72 hrs
Description: as §2, §3, §4

[10] = tested on: SK-MEL-28-luc; experiment: 72 h MTT cytotoxicity assay SK-MEL-28-luc; assay type: cell-based; conditions: Homo sapiens
Description: as §2, §3, §4

[11] = tested on: Molt-4-luc; experiment: 72 h MTT cytotoxicity assay Molt-4-luc; assay type: cell-based; conditions: Homo sapiens
Description: as §2, §3, §4

[12] = tested on: H460-luc; experiment: 72 h MTT cytotoxicity assay H460-luc; assay type: cell-based; conditions: Homo sapiens, NCI-H460-Luc; H460-luc, 72 hrs; read-out: Cytotoxicity, MTT 72 hrs, IC50 H460-luc
Description: as §2, §3, §4

[13] = tested on: MDA-MB-231-luc; experiment: 72 h MTT cell viability MDA-MB-231-luc; assay type: cell-based; conditions: Homo sapiens
Description: as §2, §3, §4

[14] = tested on: ACHN-luc; experiment: 72 h MTT cell viability ACHN-luc; assay type: cell-based; conditions: Homo sapiens
Description: as §2, §3, §4

[15] = tested on: PC-3M-luc; experiment: 72 h MTT cell viability PC-3M-luc; assay type: cell-based; conditions: Homo sapiens
Description: as §2, §3, §4

[16] = tested on: HL-60; experiment: 72 h MTT cell viability HL-60; assay type: cell-based; conditions: Homo sapiens
Description: as §2, §3, §4

[17] = tested on: THP-1; experiment: 72 h MTT cell viability THP-1; assay type: cell-based; conditions: Homo sapiens, THP-1; read-out: Cell Viability IC50 THP-1
Description: as §2, §3, §4

[18] = tested on: WI-38; experiment: 72 h MTT cell viability WI-38 (normal lung); assay type: cell-based; conditions: Homo sapiens; WI-38, normal lung cell line
Description: as §2, §3, §4

[19] = target: Aurora B (Homo sapiens, UniProt Q96GD4); experiment: Kinase assay Aurora B (Table I); assay type: biochemical
Aurora B, sequence (Q96GD4 whole entry): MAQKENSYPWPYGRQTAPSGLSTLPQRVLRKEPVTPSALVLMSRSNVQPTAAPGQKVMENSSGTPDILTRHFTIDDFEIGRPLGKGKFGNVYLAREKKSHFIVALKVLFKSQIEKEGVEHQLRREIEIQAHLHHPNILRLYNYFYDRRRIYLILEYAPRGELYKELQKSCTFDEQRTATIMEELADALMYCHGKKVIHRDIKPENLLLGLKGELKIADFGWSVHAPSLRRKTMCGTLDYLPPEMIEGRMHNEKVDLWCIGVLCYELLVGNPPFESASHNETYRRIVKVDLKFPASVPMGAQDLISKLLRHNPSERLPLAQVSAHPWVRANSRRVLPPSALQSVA
Experimental: [The source words this procedure for another target and reports this target under the same test.] as §1

[20] = target: CDK9 (Homo sapiens, UniProt P50750); experiment: CDK9 inhibitory activity, kinase assays (Table III); conditions: read-out: Target biochemical activity IC50 CDK9
CDK9, sequence (P50750 whole entry, species assumed): as the sequence (P50750 whole entry) above
CDK9, sequence (O60563 whole entry partner, species assumed): as the sequence (O60563 whole entry partner) above
Experimental: (§5) Kinase assays. The compounds were tested for their ability to inhibit kinases.

[21] = target: CDK7 (Homo sapiens, UniProt P50613); experiment: Kinase assay CDK7 (Table III); conditions: read-out: Target biochemical activity IC50 CDK7
CDK7, sequence (P50613 whole entry, species assumed): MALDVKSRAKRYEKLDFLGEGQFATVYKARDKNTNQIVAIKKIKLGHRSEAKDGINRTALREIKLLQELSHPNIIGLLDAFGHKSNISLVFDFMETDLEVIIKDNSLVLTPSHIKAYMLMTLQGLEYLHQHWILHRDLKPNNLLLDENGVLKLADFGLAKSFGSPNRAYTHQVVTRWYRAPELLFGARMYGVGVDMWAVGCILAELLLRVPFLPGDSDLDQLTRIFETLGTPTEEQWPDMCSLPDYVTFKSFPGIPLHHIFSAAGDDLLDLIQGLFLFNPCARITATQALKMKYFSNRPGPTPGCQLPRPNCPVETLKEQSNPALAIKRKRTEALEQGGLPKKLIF
CDK7, sequence (P51946 whole entry partner, species assumed): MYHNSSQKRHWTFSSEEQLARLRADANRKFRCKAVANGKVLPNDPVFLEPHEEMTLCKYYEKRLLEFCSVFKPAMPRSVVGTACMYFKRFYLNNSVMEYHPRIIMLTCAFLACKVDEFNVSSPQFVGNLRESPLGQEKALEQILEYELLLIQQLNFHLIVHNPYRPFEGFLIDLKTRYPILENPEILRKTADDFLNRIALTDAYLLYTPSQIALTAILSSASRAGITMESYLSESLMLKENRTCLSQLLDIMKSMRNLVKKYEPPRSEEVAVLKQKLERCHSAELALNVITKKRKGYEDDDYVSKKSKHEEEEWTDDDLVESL
CDK7, sequence (P51948 whole entry partner, species assumed): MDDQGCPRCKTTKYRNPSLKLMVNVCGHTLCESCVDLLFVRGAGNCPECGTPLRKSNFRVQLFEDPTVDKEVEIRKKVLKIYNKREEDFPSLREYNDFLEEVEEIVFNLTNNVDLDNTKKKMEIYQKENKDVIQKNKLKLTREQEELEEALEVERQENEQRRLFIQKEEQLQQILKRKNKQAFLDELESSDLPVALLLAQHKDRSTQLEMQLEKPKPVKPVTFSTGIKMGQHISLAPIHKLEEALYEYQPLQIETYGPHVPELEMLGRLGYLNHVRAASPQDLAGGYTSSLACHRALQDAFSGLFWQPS
Experimental: as §5

[22] = target: SRC (Homo sapiens, UniProt P12931); experiment: Kinase assay SRC (Table III); conditions: read-out: Target biochemical activity IC50 SRC
SRC, sequence (P12931 whole entry, species assumed): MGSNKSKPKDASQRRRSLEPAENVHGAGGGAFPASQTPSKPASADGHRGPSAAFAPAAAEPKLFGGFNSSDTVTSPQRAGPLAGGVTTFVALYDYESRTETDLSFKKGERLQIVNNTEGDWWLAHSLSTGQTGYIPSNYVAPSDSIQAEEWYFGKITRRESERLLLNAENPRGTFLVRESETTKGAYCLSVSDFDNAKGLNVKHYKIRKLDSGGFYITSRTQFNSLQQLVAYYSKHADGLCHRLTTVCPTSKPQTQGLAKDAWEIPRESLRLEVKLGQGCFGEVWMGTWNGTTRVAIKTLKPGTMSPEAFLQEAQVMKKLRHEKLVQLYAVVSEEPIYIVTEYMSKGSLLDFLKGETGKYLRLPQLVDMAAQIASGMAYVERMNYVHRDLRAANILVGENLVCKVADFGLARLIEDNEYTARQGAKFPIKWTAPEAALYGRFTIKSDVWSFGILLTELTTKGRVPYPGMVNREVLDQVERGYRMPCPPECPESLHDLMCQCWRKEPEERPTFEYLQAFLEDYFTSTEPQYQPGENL
Experimental: as §5

[23] = target: T5, TSSK1 (Homo sapiens, UniProt Q9BXA7); experiment: Kinase assay TSSK1 (Table III); conditions: read-out: Target biochemical activity IC50 TSSK1
T5 sequence (Q9BXA7 1-367): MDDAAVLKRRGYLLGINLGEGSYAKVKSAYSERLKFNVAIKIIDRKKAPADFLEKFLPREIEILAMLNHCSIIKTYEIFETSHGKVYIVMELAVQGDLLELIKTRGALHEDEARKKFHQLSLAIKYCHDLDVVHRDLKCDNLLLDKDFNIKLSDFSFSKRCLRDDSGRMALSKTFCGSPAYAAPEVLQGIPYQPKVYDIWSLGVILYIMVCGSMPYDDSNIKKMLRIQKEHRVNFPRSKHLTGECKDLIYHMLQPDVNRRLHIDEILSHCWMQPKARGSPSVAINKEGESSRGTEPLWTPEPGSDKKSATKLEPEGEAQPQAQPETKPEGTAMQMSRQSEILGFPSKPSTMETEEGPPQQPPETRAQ
Experimental: as §5

[24] = tested on: HeLa cells; experiment: 72 h MTT cytotoxicity assay HeLa; assay type: cell-based; conditions: Homo sapiens
Description: as §2, §3, §4

[25] = tested on: K562 cells; experiment: 72 h MTT cytotoxicity assay K562; assay type: cell-based; conditions: Homo sapiens; K562, 72 hrs
Description: as §2, §3, §4

[26] = tested on: MCF7; experiment: 72 h MTT cytotoxicity assay MCF7; assay type: cell-based; conditions: Homo sapiens; MCF7, 72 hrs
Description: as §2, §3, §4

[27] = read-out: Kinase inhibition, IC50 CDK1B
[28] = read-out: Kinase inhibition, IC50 CDK2A
[29] = read-out: Kinase inhibition, IC50 CDK5/p35
[30] = read-out: Kinase inhibition, IC50 Aurora A

T1 sequence (P06493 whole entry): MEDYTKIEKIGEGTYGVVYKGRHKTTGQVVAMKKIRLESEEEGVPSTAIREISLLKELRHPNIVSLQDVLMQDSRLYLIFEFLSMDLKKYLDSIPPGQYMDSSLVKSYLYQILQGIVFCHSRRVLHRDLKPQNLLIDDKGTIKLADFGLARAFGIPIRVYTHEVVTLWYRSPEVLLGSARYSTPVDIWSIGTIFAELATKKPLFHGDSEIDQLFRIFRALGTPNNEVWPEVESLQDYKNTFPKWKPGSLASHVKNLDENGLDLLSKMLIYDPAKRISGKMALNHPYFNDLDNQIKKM
T1 sequence (P14635 whole entry partner): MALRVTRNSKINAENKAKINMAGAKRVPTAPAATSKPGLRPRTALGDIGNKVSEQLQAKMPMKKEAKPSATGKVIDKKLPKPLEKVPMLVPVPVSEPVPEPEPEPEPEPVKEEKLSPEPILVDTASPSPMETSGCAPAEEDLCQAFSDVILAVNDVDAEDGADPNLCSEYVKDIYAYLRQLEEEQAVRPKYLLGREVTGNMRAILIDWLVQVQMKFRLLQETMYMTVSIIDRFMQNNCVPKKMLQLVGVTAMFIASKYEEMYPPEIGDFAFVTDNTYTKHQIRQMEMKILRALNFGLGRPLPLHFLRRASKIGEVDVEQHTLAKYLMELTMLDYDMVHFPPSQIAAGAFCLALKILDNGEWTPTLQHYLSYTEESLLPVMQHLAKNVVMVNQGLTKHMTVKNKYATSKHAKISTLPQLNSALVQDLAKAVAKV

Row | SMILES | IC50 [1, 27] | IC50 [2, 28] | IC50 [3, 29] | IC50 [4] | IC50 [5, 30] | IC50 [6] | IC50 [7] | IC50 [8] | IC50 [9] | IC50 [10] | IC50 [11] | IC50 [12] | IC50 [13] | IC50 [14] | IC50 [15] | IC50 [16] | also measured
1 | CCn1cc(-c2ccnc(Nc3cccc(S(N)(=O)=O)c3)n2)c2ccnc(Cl)c21 [Compound 73, 3-(4-(7-Chloro-1-ethyl-1H-pyrrolo[2,3-c]pyridin-3-yl)pyrimidin-2-ylamino)benzenesulfonamide] | 180 nM | 3.8 nM | 190 nM | 24 nM | 1280 nM | 370 nM | 410 nM | > 10000 nM | 180 nM | 490 nM | 430 nM | 315 nM | 440 nM | 510 nM | 890 nM | 430 nM | IC50 [17]: 2740 nM; IC50 [18]: > 10000 nM
2 | CCn1cc(-c2ccnc(Nc3ccc(O)cc3)n2)c2ccnc(Cl)c21 [SG49] | – | – | – | – | – | – | – | – | – | – | – | – | – | – | – | – | IC50 ([1]; Table III, read-out: Target biochemical activity IC50 CDK1): 190 nM; IC50 ([2]; Table III, read-out: Target biochemical activity IC50 CDK2): 16 nM; IC50 ([3]; Table III, read-out: Target biochemical activity IC50 CDK5): 350 nM; IC50 ([5]; Table III, read-out: Target biochemical activity IC50 Aurora A): 2460 nM; IC50 ([19]; Table III, read-out: Target biochemical activity IC50 Aurora B): > 10000 nM; IC50 [20]: 95 nM; IC50 [21]: > 10000 nM; IC50 [22]: 4560 nM; IC50 [23]: 1490 nM
3 | CCCn1cc(-c2ccnc(Nc3ccc(S(N)(=O)=O)cc3)n2)c2nc(Cl)cc(C)c21 [Compound 39, 4-(4-(5-Chloro-7-methyl-1-propyl-1H-pyrrolo[3,2-b]pyridin-3-yl)pyrimidin-2-ylamino)benzenesulfonamide] | > 10000 nM | 1670 nM | > 10000 nM | 57 nM | 620 nM | 420 nM | 1260 nM | 3700 nM | 100 nM | 3410 nM | 5250 nM | 1030 nM | 2030 nM | 13700 nM | > 10000 nM | 1270 nM | IC50 ([19]; read-out: Kinase inhibition, IC50 Aurora B): 320 nM; IC50 [24]: 3300 nM; IC50 [25]: 4720 nM; IC50 [26]: > 10000 nM
